From paper PMC10457369, “Novel VEGFR2 inhibitors with thiazoloquinoxaline scaffold targeting hepatocellular carcinoma with lower cardiotoxic impact” (Scientific Reports, 2023)
Where two headings read alike, the source gives them in different places. One block for each molecule: values may come before it.

Key:
VEGFR-2 = biological target: T1, VEGFR-2 (Homo sapiens, UniProt P35968); assay: In-vitro VEGFR-2 kinase assay (BPS Bioscience kit, Kinase-Glo MAX); type: biochemical; settings: mean ± S.D of three experiments
T1 construct: purchased BPS Bioscience 40325
Procedure: The VEGFR-2 Kinase Assay Kit [Catalog no., 40325, BPS Bioscience®, USA] is designed to measure VEGFR-2 kinase activity for screening and profiling applications using Kinase-Glo® MAX as a detection reagent. The VEGFR-2 Kinase Assay Kit comes in a convenient 96-well format, with enough purified recombinant VEGFR2 enzyme and VEGFR2 substrate. The assay protocol was carried out according to manufacturer instructions.

mice = settings: male, Swiss albino, mouse, in vivo, po, 14 days
Procedure: For the study of the compound 4d's oral toxicity, 30 male Swiss albino mice were used. They were randomly allocated into 5 groups; the first group of mice (n = 6) received a vehicle and was used as control, while the other four groups, each received a different acute dose of compound 4d dissolved in 0.05% Tween 80 (9005–65-6) (200, 500, 800, and 1000 mg/kg p.o.). Up to 14 days after treatment, clinical toxicity symptoms (death, more than 20% weight loss, diarrhea, lethargy, tremors, and convulsions) were noted.

[1] = tested on: serum lactate dehydrogenase (LDH); assay: Serum LDH in 8 Gy irradiated mice; type: in vivo; settings: 50 mg/kg p.o., 3 days
Procedure: (§1) Whole body γ-irradiation of mice was performed at the NCRRT using the Gamma Cell-40 biological irradiator with a Cesium-137 irradiator unit, produced by the atomic energy of Canada limited (Sheridan science and technology park, Mississauga, Ontario, Canada). Mice were exposed to an acute dose of 8 Gy according to Yoo et al..
(§2) A total 32 mice were randomly allocated into 4 groups as follows: 1- control normal [Control] mice received vehicle (10% DMSO). 2- Irradiated mice (8 Gy) received vehicle [IRR]. […] 4- Irradiated mice treated with Compound 4d (50 mg/ kg body wt./ p.o) for 3 successive days, [IRR + cmp 4d]. After 3 days, all animals were anesthetized with ketamine (80 mg/ kg), blood samples were collected via retro-orbital plexus, and then serum samples were separated after centrifugation. Heart and liver samples were dissected and rapidly washed with cool saline then heart samples were stored at -80 °C till assay time. One lobe of liver was embedded in 10% formalin for immunohistochemistry assay.
Serum LDH was estimated kinetically using Spectrum® coloring assay Kit [Egyptian company for biotechnology, SAE®, Egypt]. It was carried according to manufacturer's instructions; the values were expressed as IU/ml.

cardiac TNF-α = assay: Cardiac TNF-α ELISA in 8 Gy irradiated mice; type: in vivo; settings: in comparison to control irradiated group, 50 mg/kg p.o., 3 days
Procedure: as §1, §2
(§3) Heart tissues of mice were weighted and minced then homogenized in cold fresh lysis buffer, the homogenate was centrifuged for 5 min at 4000 rpm, and then the supernatant was used for assay. Cardiac contents of CK, TNF-α and Caspase-9 were measured according to manufacturer instructions using CK ELISA kit [catalog no. EK730963, AFG Bioscience®, USA], TNF-α ELISA kit [catalog no. […]

[2] = tested on: heart creatine kinase (CK); assay: Heart creatine kinase (CK) ELISA in 8 Gy irradiated mice; type: in vivo; settings: 50 mg/kg p.o., 3 days
Procedure: as §1, §2
Heart tissues of mice were weighted and minced then homogenized in cold fresh lysis buffer, the homogenate was centrifuged for 5 min at 4000 rpm, and then the supernatant was used for assay. Cardiac contents of CK, TNF-α and Caspase-9 were measured according to manufacturer instructions using CK ELISA kit [catalog no. EK730963, AFG Bioscience®, USA], TNF-α ELISA kit [catalog no. SEA626Ra, Cloud-Clone Corp®, USA] and Caspase-9 ELISA kit [catalog no. E-EL-R02054, Elabsciense®, USA], respectively.

HepG2 cells = assay: HepG2 cell viability, SRB assay; type: cell-based; settings: Homo sapiens
Procedure: (§4) Hepatocellular carcinoma (HepG2) and rat heart/myocardium (H9C2) were obtained from Nawah Scientific Inc., (Mokattam, Cairo, Egypt). Cells were maintained in DMEM media supplemented with […] of streptomycin (3810–74-0), 100 units/mL of penicillin (113–98-4) and 10% of heat-inactivated fetal bovine serum in humidified, 5% (v/v) CO2 atmosphere at 37 °C.
(§5) Cell viability was assessed by SRB assay,[67]. Aliquots of 100 μL cell suspension (5 × 10^3 cells) were in 96-well plates and incubated in complete media for 24 h. […] After 72 h of drug exposure, cells were fixed by replacing media with 150 μL of 10% TCA (76–03-9) and incubated at 4 °C for 1 h. The TCA solution was removed, and the cells were washed 5 times with distilled water. Aliquots of 70 μL SRB (3520–42-1) solution (0.4% w/v) were added and incubated in a dark place at room temperature for 10 min. Plates were washed 3 times with 1% acetic acid (64–19-7) and allowed to air-dry overnight. Then, 150 μL of TRIS (77–86-1) (10 mM) was added to dissolve protein-bound SRB stain; the absorbance was measured at 540 nm using a BMG LABTECH®- FLUOstar Omegammicroplate reader (Ortenberg, Germany).

hepatic VEGF = assay: Immunohistochemistry expression of VEGF in liver tissue of irradiated mice; type: in vivo; settings: 50 mg/kg p.o., 3 days, 8 Gy irradiated mice, vs irradiated animals
Procedure: as §1, §2
Immunohistochemical study was carried out on paraffin tissue sections prepared for the detection VEGF, liver tissue sections were incubated separately with anti- VEGF (Gene Tex, USA). The expression of each marker was visualized by the chromogen 3,3-diaminobenzidine tetrahydrochloridem (DAB, Sigma Chemical Co.).

H9C2 cells = assay: H9C2 cardiomyocyte viability, SRB assay; type: cell-based, rat; settings: for IC50: 72 h, SRB
Procedure: as §4, §5

cardiac caspase-9 = assay: Cardiac caspase-9 ELISA in 8 Gy irradiated mice; type: in vivo; settings: 50 mg/kg p.o., 3 days
Procedure: as §1, §2, §3

serum catalase = assay: Serum catalase activity in 8 Gy irradiated mice; type: in vivo; settings: 50 mg/kg p.o., 3 days
Procedure: as §1, §2
Serum catalase was assessed colorimetrically in all groups according to manufacturer instructions using coloring endpoint kit [Biodiagnostic co.®, Egypt].

[3] = 72 h, SRB, read-out: HepG2 IC50

T1 sequence (P35968 20-1356): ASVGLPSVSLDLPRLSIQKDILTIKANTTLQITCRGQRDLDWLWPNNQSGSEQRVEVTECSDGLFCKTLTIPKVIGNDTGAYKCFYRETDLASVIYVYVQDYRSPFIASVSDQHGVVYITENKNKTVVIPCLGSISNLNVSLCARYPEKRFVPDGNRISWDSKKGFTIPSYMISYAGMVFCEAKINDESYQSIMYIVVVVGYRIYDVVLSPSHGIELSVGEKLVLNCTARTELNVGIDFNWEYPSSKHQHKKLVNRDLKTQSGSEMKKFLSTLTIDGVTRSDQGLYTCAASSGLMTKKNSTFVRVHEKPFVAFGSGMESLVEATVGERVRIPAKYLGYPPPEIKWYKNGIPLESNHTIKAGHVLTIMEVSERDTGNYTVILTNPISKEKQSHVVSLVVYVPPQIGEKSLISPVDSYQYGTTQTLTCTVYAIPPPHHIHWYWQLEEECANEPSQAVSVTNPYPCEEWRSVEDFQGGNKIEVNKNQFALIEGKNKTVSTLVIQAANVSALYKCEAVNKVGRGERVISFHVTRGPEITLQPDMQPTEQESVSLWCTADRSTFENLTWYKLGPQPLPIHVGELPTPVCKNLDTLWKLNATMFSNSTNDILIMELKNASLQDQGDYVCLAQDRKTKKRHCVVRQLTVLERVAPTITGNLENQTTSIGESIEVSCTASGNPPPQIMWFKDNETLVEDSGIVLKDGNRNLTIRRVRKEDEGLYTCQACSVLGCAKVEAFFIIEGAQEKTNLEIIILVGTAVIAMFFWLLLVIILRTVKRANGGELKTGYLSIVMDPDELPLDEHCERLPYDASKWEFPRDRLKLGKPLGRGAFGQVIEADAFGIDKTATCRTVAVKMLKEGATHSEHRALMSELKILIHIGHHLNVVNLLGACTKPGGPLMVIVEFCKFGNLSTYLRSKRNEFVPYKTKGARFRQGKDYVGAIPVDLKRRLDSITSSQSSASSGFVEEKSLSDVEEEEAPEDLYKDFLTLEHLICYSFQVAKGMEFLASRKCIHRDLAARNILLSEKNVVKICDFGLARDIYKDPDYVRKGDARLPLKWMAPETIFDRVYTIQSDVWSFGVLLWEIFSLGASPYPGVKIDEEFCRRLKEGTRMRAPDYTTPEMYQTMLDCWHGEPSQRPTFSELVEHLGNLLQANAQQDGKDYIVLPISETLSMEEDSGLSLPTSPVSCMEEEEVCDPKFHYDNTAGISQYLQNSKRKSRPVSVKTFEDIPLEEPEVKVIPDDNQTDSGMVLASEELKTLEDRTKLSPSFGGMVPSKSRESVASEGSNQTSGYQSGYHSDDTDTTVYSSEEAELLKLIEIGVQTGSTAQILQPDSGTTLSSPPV

Compound: NS(=O)(=O)c1ccc(N=c2[nH]c3nc4ccccc4nc3s2)cc1 [Compound 4a, 4-(Thiazolo[4,5-b]quinoxalin-2(3H)-ylideneamino)benzenesulfonamide]
melting point: 165 to 167 °C | IC50 (VEGFR-2): 169 ± 7.4 nM

Compound: N=C(N)NS(=O)(=O)c1ccc(N=c2[nH]c3nc4ccccc4nc3s2)cc1 [Compound 4c, N-Carbamimidoyl-4-(thiazolo[4,5-b]quinoxalin-2(3H)-ylideneamino) benzene-esulfonamide]
melting point: > 260 °C | IC50 (VEGFR-2): 254 ± 11 nM

Compound: O=S(=O)(Nc1ccccn1)c1ccc(N=c2[nH]c3nc4ccccc4nc3s2)cc1 [Compound 4d, N-(pyridin-2-yl)-4-(thiazolo[4,5-b]quinoxalin-2(3H)-ylideneamino) benzene-sulfonamide]
high level of safety up to (mice): up to 1000 mg/kg | serum LDH compared to normal values [1]: non-significant deviation from normal LDH values | decrease in serum LDH ([1]; compared to sorafenib treated group): 40.83% | IC50 (VEGFR-2): 61 ± 2.6 nM | reduction in cardiac TNF-α (cardiac TNF-α): 35.75% | CK activity compared to normal values [2]: not significantly different from normal values | CK level compared to IRR non-treated group [2]: did not significantly lower CK level | viability at 0.01 µM (HepG2 cells; 72 h, SRB): 98.55 ± 0.47% | viability at 0.1 µM (HepG2 cells; 72 h, SRB): 98.32 ± 0.97% | viability at 1 µM (HepG2 cells; 72 h, SRB): 98.1 ± 1.8% | viability at 10 µM (HepG2 cells; 72 h, SRB): 6.62 ± 0.5% | viability at 100 µM (HepG2 cells; 72 h, SRB): 3.81 ± 0.24% | IC50 (HepG2 cells; [3]): 4310 nM | IC50 (HepG2 cells; read-out: suppressing potency on HepG2 cells proliferation): 4310 nM | expression of VEGF in liver tissue (hepatic VEGF): promisingly suppressed | times less cytotoxic than sorafenib (H9C2 cells; H9C2 cardiomyocytes): 2.93 times | decrease in Caspase-9 (cardiac caspase-9; compared to control irradiated animals): 20.63% | serum catalase activity (serum catalase): normal catalase activity

Compound: O=S(=O)(Nc1nccs1)c1ccc(N=c2[nH]c3nc4ccccc4nc3s2)cc1 [Compound 4g, N-(Thiazol-2-yl)-4-(thiazolo[4,5-b]quinoxalin-2(3H)-ylideneamino) benzene-sulfonamide]
melting point: 238 to 240 °C | IC50 (VEGFR-2): 99.8 ± 4.3 nM

Compound: COc1cc(NS(=O)(=O)c2ccc(N=c3[nH]c4nc5ccccc5nc4s3)cc2)nc(OC)n1 [Compound 4j, N-(2,6-Dimethoxypyrimidin-4-yl)-4-(thiazolo[4,5-b]quinoxalin-2(3H)-ylidene-amino)-benzenesulfonamide]
melting point: 249 to 251 °C | IC50 (VEGFR-2): 368 ± 16 nM

Second part, led by results:

melting point: 245 to 247 °C | IC50 (VEGFR-2): 132 ± 5.7 nM
Compound: CC(=O)NS(=O)(=O)c1ccc(N=c2[nH]c3nc4ccccc4nc3s2)cc1 [Compound 4b, N-((4-(Thiazolo[4,5-b]quinoxalin-2(3H)ylideneamino)phenyl)sulfonyl)-acetamide]

melting point: 223 to 225 °C | IC50 (VEGFR-2): 112 ± 4.8 nM
Compound: O=S(=O)(Nc1ncccn1)c1ccc(N=c2[nH]c3nc4ccccc4nc3s2)cc1 [Compound 4e, N-(Pyrimidin-2-yl)-4-(thiazolo[4,5-b]quinoxalin-2(3H)-ylideneamino) benzene-sulfonamide]

melting point: 186 to 188 °C | IC50 (VEGFR-2): 83.3 ± 3.7 nM | IC50 (HepG2 cells; [3]): > 100000 nM
Compound: Cc1cc(NS(=O)(=O)c2ccc(N=c3[nH]c4nc5ccccc5nc4s3)cc2)no1 [Compound 4f, N-(5-Methylisoxazol-3-yl)-4-(thiazolo[4,5-b]quinoxalin-2(3H)-ylideneamino) benzene-sulfonamide]
viability at 0.01 µM (HepG2 cells; 72 h, SRB): 97.6 ± 1.26% | viability at 0.1 µM (HepG2 cells; 72 h, SRB): 97.1 ± 1.06% | viability at 1 µM (HepG2 cells; 72 h, SRB): 96.6 ± 1.2% | viability at 10 µM (HepG2 cells; 72 h, SRB): 95.5 ± 3% | viability at 100 µM (HepG2 cells; 72 h, SRB): 94 ± 2.03%

melting point: 199 to 201 °C | IC50 (VEGFR-2): 217 ± 9.4 nM
Compound: Cc1ccnc(NS(=O)(=O)c2ccc(N=c3[nH]c4nc5ccccc5nc4s3)cc2)n1 [Compound 4h, N-(4-Methylpyrimidin-2-yl)-4-(thiazolo[4,5-b]quinoxalin-2(3H)-ylideneamino)-benzenesulfonamide]

melting point: 246 to 248 °C | IC50 (VEGFR-2): 288 ± 13 nM
Compound: Cc1cc(C)nc(NS(=O)(=O)c2ccc(N=c3[nH]c4nc5ccccc5nc4s3)cc2)n1 [Compound 4i, N-(4,6-Dimethylpyrimidin-2-yl)-4-(thiazolo[4,5-b]quinoxalin-2(3H)-ylideneamino) benzenesulfonamide]

increase in serum LDH ([1]; vs normal): 106.06% | reduction in cardiac TNF-α (cardiac TNF-α): 31.87% | increment in CK enzymatic activity ([2]; vs normal): 35.88% | IC50 (HepG2 cells; [3]): 2970 nM | increase in cardiac caspase-9 levels (cardiac caspase-9; over normal values): 29.83% | decrease in serum catalase activity (serum catalase; vs normal): 6.19%
Compound: CNC(=O)c1cc(Oc2ccc(NC(=O)Nc3ccc(Cl)c(C(F)(F)F)c3)cc2)ccn1 [Sorafenib, reference compound]
viability at 0.01 µM (HepG2 cells; 72 h, SRB): 99.58 ± 0.94% | viability at 0.1 µM (HepG2 cells; 72 h, SRB): 98.2 ± 3.19% | viability at 1 µM (HepG2 cells; 72 h, SRB): 87.1 ± 2.02% | viability at 10 µM (HepG2 cells; 72 h, SRB): 11.3 ± 0.31% | viability at 100 µM (HepG2 cells; 72 h, SRB): 4.05 ± 0.1% | expression of VEGF in liver tissue (hepatic VEGF): promisingly suppressed | IC50 (H9C2 cells): 33500 nM | IC50 (H9C2 cells; listed as sorafenib): 98100 nM
